{"source": "patent US20210008083A1", "about": "“USE OF A BISPHOSPHONATE SALT IN A MEDICAMENT FOR A NATURALLY OCCURRING DISEASE/DISORDER IN A MAMMAL” (Ostafit B.V., priority 2016, published 2021)", "key": {"[1]": {"system": "osteoarthritis or similar complaints", "protocol": "(§1) The following experiments were performed during November 2015-May 2016. In various veterinarian locations in the Netherlands the animals were treated or occasionally the animals were treated on a farm in a stable.\nFor cats it is preferred to provide the dosage in a subcutaneous manner."}, "[2]": {"system": "osteoarthritis or similar complaints", "conditions": "24 dogs, 5-15 years, 0.20 mg/kg intravenous during about 15 min", "protocol": "as §1\n(§2) Typical symptoms for dogs and other animals mentioned in the description are lameness, stiffness, especially in the morning, after a stroll and when starting, moving with relatively short steps, a preference for lying down, no stamina, various difficulties/limitations, such as in rising or lying down, in keeping up walking pace, rising a leg, jumping on a couch, tail between the legs and squealing from pain."}, "[3]": {"system": "osteoarthritis in the SI joint", "conditions": "one donkey, treated in line with the horses", "protocol": "as §1\nOne donkey was treated in line with the horses above."}, "osteoarthritis": {"system": "osteoarthritis", "conditions": "1 bull, 6 years, 0.2 mg/kg intravenous", "protocol": "as §1"}, "[4]": {"system": "various disorders and disease", "experiment": "Present bisphosphonates tested on various naturally occurring disorders and diseases in mammals", "set-up": "species or system mammals (horses, donkeys, cows, dogs and cats)", "conditions": "dog, in vivo", "description": "A repetition may be given after 4-12 months. […] In general it is noted that timing of potential benefit of antiresorptives in OA might be important. The greatest benefit in the prior art is typically seen very early in the disease. So to maintain the normal attitude mode, typically once per 1-12 month, preferably once per 2-6 months, such as once per 3-5 month, or put different 1-6 times per year, preferably 2-6 times per year, such as 3-4 times per year.\nFor better understanding of these diseases and disorders, the following section is added, such as to categorize these.\nas §2"}, "primary osteoarthritis": {"system": "primary osteoarthritis", "conditions": "guinea pig model of primary osteoarthritis; cited from earlier work"}, "hip osteoarthritis": {"system": "hip osteoarthritis", "conditions": "oral 35 mg once a week, 2 years; cited from earlier work"}, "knee osteoarthritis": {"system": "knee osteoarthritis", "conditions": "2-year period; cited from earlier work"}}, "data": [{"molecule": "NCCCC(O)(P(=O)(O)O)P(=O)(O)O.O.O.O", "note": "[Alendronate, [4-amino-1-hydroxy-1-(hydroxy-oxido-phosphoryl)-butyl]phosphonic acid trihydrate]", "values": [{"measurement": "cats free of complaints", "setting": "[1]; eight cats, 12-18 years, 0.2 mg/kg subcutaneous or intravenous, one cat still had complaints (other medicines withdrawn)", "result": "Seven cats were free of complaints within a few weeks"}, {"measurement": "cats showing a good response (substantially free of complaints)", "setting": "[1]; later experiments on more cats", "result": "more than 75%"}, {"measurement": "complaints of dogs after treatment", "setting": "[2]", "result": "All dogs have significantly less complaints or were free of complaints within a few weeks"}, {"measurement": "result of treatment in donkey", "setting": "[3]", "result": "results here were fine"}, {"measurement": "bull free of complaints", "setting": "osteoarthritis", "result": "free of complaints within a month"}, {"measurement": "outcome of testing on various disorders and disease", "setting": "[4]", "result": "tested on various disorders and disease with success"}, {"measurement": "effect on disease progression", "setting": "primary osteoarthritis", "result": "Risedronate but not Alendronate slows disease progression"}, {"measurement": "clinical efficacy on pain", "setting": "hip osteoarthritis", "result": "had clinical efficacy of pain reduction"}, {"measurement": "effect on structural progression of hip osteoarthritis", "setting": "hip osteoarthritis", "result": "failed to show preventive effects for structural progression of hip osteoarthritis"}]}, {"molecule": "CCCCCN(C)CCC(O)(P(=O)(O)O)P(=O)(O)O", "note": "[Ibandronate]", "values": [{"measurement": "outcome of testing on various disorders and disease", "setting": "[4]", "result": "tested on various disorders and disease with success"}]}, {"molecule": "NCCCCCC(O)(P(=O)(O)O)P(=O)(O)O", "note": "[Nerodronate]", "values": [{"measurement": "outcome of testing on various disorders and disease", "setting": "[4]", "result": "tested on various disorders and disease with success"}]}, {"molecule": "CN(C)CCC(O)(P(=O)(O)O)P(=O)(O)O", "note": "[Olpadronate]", "values": [{"measurement": "outcome of testing on various disorders and disease", "setting": "[4]", "result": "tested on various disorders and disease with success"}]}, {"molecule": "NCCC(O)(P(=O)(O)O)P(=O)(O)O", "note": "[Pamidronate]", "values": [{"measurement": "outcome of testing on various disorders and disease", "setting": "[4]", "result": "tested on various disorders and disease with success"}]}, {"molecule": "O=P(O)(O)C(O)(Cc1cccnc1)P(=O)(O)O", "note": "[Risedronate]", "values": [{"measurement": "outcome of testing on various disorders and disease", "setting": "[4]", "result": "tested on various disorders and disease with success"}, {"measurement": "effect on disease progression", "setting": "primary osteoarthritis", "result": "slows disease progression"}, {"measurement": "symptom improvement or progression of radiographic osteoarthritis vs placebo", "setting": "knee osteoarthritis", "result": "no significant differences in symptom improvement or progression of radiographic osteoarthritis"}]}, {"molecule": "O=P(O)(O)C(O)(Cn1ccnc1)P(=O)(O)O", "note": "[Zoledronate]", "values": [{"measurement": "outcome of testing on various disorders and disease", "setting": "[4]", "result": "tested on various disorders and disease with success"}]}]}
